Test results as given in ChEMBL document CHEMBL1201862, “PubChem BioAssay data set” (2004).
Active and inactive are the calls of the source.

Tests used:
[1] = inhibitors of TNFa-stimulated NF-kB luciferase reporter, dose response, selectivity assay for EBV LMP1 NF-kB inhibitor project, HEK293 LMP1 reporter cells, dry powder, set 2 (AID 624369); format: functional
[2] = target: T1, Eukaryotic translation initiation factor 2-alpha kinase 3 (Homo sapiens, UniProt Q9NZJ5); assay: Dose response cell-based high-throughput screening assay to measure PERK inhibition. [Related pubchem assays: 1416 ]; format: functional
T1 sequence (Q9NZJ5 whole entry): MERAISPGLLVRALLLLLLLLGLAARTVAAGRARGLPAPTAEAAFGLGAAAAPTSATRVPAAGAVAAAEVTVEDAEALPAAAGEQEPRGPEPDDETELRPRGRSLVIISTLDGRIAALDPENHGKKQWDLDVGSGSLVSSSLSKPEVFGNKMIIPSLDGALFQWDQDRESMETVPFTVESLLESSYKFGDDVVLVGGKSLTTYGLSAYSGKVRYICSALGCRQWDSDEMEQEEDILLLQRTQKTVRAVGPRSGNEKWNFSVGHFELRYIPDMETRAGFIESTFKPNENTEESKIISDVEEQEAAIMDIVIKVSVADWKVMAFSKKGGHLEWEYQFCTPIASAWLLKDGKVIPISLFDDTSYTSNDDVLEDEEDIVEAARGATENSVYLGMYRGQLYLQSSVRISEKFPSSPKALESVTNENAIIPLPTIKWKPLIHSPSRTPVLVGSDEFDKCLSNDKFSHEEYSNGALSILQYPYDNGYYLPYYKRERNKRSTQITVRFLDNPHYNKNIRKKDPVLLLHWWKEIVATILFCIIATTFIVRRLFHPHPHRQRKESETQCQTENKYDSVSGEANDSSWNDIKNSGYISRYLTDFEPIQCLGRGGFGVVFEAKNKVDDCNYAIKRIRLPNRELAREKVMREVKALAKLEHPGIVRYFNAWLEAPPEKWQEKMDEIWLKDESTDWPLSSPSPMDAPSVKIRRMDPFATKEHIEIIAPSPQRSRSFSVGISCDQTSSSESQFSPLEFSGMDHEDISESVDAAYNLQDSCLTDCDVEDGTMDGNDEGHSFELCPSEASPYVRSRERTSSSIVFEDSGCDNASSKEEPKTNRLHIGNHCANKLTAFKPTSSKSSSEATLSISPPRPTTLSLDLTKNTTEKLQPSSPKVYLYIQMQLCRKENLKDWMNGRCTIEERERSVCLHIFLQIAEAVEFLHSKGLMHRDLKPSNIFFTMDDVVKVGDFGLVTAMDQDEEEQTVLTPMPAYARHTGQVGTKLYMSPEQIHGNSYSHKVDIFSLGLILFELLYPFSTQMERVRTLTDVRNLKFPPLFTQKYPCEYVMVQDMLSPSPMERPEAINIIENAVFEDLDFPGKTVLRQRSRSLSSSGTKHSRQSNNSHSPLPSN

INS1 = assay: beta cell apoptosis inhibitors, cytokine rescue, dose response, luminescence, retest (AID 449756); format: functional, cell-based; conditions: Rattus norvegicus;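 also: cell death triggered by IL-1 beta plus TNF-alpha plus IFN-gamma mixture; protective hits raise ATP signal compared with cytokine alone wells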
[3] = target: Photoreceptor-specific nuclear receptor (Homo sapiens, UniProt Q9Y5X4); format: functional, cell-based;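 also: CHO-S cells with Gal4-NCOR and VP16-NR2E3 two-hybrid luciferase reporter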
Photoreceptor-specific nuclear receptor, sequence (Q9Y5X4 whole entry, the tested form may be a part): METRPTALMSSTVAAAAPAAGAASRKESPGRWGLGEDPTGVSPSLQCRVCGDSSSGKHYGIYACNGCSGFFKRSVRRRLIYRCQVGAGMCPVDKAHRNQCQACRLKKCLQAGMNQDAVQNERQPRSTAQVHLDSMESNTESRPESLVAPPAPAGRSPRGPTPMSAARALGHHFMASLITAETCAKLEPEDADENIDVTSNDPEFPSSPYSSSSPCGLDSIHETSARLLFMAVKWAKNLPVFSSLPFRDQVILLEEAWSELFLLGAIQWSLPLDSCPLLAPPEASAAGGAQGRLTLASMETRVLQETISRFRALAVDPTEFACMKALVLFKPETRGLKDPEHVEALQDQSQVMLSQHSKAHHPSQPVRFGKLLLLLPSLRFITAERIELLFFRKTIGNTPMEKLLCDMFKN

[4] = target: T1, Eukaryotic translation initiation factor 2-alpha kinase 3; assay: Counterscreen assay for PERK inhibitors: Dose response cell-based high throughput screening assay to measure inhibition of PERK at 6 hours. [Related pubchem assays: 1522, 1416 ]; format: functional
[5] = target: Matrix metalloproteinase-14 (Homo sapiens, UniProt P50281); assay: SAR confirmation of uHTS hits for a small molecule inhibitors of MT1-MMP activation in a fluorescence assay.; format: functional
A549 = assay: A549 cell toxicity, dose response, cytotoxicity control, plate reader, cherry-pick samples (AID 687028); format: functional, cell-based; conditions: Homo sapiens
Vero [6] = assay: Vero cell toxicity, dose response, cytotoxicity control, plate reader, cherry-pick samples (AID 687020); format: functional, cell-based; conditions: Chlorocebus sabaeus
Albumin = Albumin (Bos taurus, UniProt P02769); assay: Counterscreen for inhibitors of T-cell receptor (TCR)-CD3 interaction: Fluorescence-based biochemical high throughput dose response assay to identify inhibitors of T-cell receptor (TCR)-CD3 interaction using a TAMRA-labeled BSA probe.; format: functional
Albumin, sequence (P02769 whole entry): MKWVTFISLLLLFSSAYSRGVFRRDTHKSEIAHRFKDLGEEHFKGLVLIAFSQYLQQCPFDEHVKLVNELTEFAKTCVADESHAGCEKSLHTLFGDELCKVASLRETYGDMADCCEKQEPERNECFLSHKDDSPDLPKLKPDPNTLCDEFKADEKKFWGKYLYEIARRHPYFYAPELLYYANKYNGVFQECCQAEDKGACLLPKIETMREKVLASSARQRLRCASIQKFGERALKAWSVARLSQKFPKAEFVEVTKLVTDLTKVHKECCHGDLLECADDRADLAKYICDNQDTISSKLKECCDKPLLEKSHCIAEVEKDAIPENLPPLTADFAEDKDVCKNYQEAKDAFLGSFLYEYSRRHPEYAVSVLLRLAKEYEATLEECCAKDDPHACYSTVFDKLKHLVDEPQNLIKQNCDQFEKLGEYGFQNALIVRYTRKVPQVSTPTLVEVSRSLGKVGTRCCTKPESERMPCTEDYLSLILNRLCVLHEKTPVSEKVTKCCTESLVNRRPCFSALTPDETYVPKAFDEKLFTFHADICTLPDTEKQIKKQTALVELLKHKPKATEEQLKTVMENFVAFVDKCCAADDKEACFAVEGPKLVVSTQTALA

[7] = target: Nuclear receptor subfamily 5 group A member 2 (Homo sapiens, UniProt O00482); format: functional, cell-based;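 also: HEK293T cells transfected with LRH-1 and a StAR promoter luciferase reporter; potency for inhibitors that lower LRH-1 driven reporter light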
Nuclear receptor subfamily 5 group A member 2, sequence (O00482 whole entry): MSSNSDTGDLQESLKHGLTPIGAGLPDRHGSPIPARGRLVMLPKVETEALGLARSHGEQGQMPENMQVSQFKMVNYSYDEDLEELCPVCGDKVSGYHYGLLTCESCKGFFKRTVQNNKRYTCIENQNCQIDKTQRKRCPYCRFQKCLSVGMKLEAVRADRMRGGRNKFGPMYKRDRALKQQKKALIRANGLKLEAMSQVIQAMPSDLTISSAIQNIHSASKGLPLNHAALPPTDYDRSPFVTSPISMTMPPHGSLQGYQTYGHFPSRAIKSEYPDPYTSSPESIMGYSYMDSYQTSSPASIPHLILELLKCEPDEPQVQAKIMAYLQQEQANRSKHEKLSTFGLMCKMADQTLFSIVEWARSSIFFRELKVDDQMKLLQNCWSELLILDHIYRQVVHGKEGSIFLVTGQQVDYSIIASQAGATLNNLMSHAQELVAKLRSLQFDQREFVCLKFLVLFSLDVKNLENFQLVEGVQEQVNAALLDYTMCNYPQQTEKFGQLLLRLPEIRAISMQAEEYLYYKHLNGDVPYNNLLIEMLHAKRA

[8] = StAR promoter reporter inhibition counter-screen, dose response, counter-screen for LRH-1 inverse agonist project, cell-based, luminescence, luciferase reporter (AID 651969); format: functional
Steroidogenic factor 1 = Steroidogenic factor 1 (Homo sapiens, UniProt Q13285); assay: Counterscreen for inverse agonists of the liver receptor homolog-1 (LRH-1; NR5A2): Luminescence-based cell-based high throughput dose response assay to identify inverse agonists of the Steroidogenic Factor 1 Nuclear Receptor (SF1; NR5A1).; format: functional
Steroidogenic factor 1, sequence (Q13285 whole entry): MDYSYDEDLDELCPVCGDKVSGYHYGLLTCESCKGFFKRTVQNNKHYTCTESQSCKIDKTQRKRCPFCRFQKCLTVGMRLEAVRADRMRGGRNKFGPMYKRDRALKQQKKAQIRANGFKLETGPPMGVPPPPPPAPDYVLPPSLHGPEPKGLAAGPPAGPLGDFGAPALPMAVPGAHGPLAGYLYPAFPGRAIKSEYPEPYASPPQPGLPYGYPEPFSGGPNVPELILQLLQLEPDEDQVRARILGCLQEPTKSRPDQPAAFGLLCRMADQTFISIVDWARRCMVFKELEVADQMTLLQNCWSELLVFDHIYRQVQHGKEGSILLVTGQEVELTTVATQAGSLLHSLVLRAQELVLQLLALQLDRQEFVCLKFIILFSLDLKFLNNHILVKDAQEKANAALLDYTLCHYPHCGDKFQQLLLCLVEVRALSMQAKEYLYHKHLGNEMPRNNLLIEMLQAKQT

[9] = system: Streptococcus sp. 'group A'; assay: growth inhibition of control SK(-) GAS strain, dose response, counter-screen for streptokinase expression inhibitor project, luminescence, kanamycin, BacTiterGlo, confirmation (AID 1900); format: functional, organism-based
[10] = human group III sPLA2 inhibitors, dose response, biochemical, QFRET, IC50 (AID 743457);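 also: green fluorescence rise as the enzyme cleaves BODIPY PC-A2 in liposomes; potency for inhibition of the enzyme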
Streptococcus = assay: Group A Streptococcus viability loss, dose response, counter-screen for streptokinase expression inhibitor project, luminescence, BacTiterGlo (AID 1915); format: functional, organism-based;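 also: potency for reduction of bacterial viability or growth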
Vero [11] = assay: cells; format: functional; conditions: Chlorocebus sabaeus
[12] = target: Mitochondrial peptide methionine sulfoxide reductase (Bos taurus, UniProt P54149); assay: Absorbance-based biochemical high throughput dose response assay for activators of Methionine sulfoxide reductase A (MsrA).; format: functional
Mitochondrial peptide methionine sulfoxide reductase, sequence (P54149 whole entry): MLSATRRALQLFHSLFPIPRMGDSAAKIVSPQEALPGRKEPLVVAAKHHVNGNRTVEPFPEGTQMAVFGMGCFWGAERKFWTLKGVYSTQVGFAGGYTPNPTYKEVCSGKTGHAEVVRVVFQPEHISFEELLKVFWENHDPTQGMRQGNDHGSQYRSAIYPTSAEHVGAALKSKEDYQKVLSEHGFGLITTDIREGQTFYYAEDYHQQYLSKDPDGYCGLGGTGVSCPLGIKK

[13] = target: T2, DNA repair protein RAD52 homolog (Homo sapiens, UniProt P43351); format: functional, biochemical
T2 sequence (P43351 whole entry): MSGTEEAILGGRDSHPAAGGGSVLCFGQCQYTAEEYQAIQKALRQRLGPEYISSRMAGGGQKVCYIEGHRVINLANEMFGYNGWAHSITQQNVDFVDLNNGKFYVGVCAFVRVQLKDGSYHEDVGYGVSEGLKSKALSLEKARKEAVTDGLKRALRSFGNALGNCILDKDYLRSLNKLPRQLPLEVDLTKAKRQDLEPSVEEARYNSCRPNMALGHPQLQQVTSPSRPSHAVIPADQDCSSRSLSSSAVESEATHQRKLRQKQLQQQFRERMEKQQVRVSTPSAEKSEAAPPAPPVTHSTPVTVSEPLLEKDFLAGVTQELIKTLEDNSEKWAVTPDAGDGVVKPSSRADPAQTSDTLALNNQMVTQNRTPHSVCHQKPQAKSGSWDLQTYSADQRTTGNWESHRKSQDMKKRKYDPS

[14] = target: DNA repair and recombination protein RAD54-like (Homo sapiens, UniProt Q92698); assay: inhibitors of human RAD54 branch migration, confirmation, biochemical, fluorescence, cherry-picked samples, dose series (AID 651657); format: functional
DNA repair and recombination protein RAD54-like, sequence (Q92698 whole entry): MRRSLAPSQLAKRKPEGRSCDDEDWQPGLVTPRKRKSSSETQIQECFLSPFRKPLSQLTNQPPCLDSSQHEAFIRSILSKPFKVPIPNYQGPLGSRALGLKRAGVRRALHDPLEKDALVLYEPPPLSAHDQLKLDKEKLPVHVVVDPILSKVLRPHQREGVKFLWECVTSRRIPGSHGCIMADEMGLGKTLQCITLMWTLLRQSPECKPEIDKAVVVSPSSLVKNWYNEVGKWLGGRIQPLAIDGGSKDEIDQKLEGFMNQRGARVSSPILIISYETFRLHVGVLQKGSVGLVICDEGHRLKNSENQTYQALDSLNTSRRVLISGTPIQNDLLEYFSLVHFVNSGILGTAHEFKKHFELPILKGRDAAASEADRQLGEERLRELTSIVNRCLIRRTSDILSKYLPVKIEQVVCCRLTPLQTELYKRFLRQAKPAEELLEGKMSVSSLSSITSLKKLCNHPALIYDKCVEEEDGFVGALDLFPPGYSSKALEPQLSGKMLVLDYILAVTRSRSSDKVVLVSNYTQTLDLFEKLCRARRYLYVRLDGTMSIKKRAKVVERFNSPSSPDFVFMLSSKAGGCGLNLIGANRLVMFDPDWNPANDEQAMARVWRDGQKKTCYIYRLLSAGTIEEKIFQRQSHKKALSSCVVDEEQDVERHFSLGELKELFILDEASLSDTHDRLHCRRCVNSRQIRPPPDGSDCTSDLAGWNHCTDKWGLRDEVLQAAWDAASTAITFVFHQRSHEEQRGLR

Work on `O=C(C[C@@H]1C[C@H]2c3cc(NC(=O)c4ccc5c(c4)OCO5)ccc3O[C@H]2[C@H](CO)O1)NC1CCCCC1` yielded an AbsAC35 [1] of 166.85 µM.
In the case of `CCC1(OC(=O)CN)C(=O)OCc2c1cc1n(c2=O)Cc2cc3ccccc3nc2-1` (centres undefined), the EC50 [2] was > 55.7 µM (not active), the AC50 (INS1) was 2.25 µM (active) and the IC50 [3] was 1.23 µM (active). The EC50 [4] was > 55.7 µM (not active).
For `CN1/C(=C/C=C/c2n(C)c3cc([N+](=O)[O-])c([N+](=O)[O-])cc3[n+]2C)C(C)(C)c2ccccc21`, the IC50 [5] was 6.88 µM (active).
For `Nc1nc2ccccc2n1Cc1ccc(Cl)c(Cl)c1`, the AC50 (A549) was 2.82 µM (active) and the AC50 (Vero [6]) was 1.28 µM (active).
With `O=c1cc(-c2ccc(O)c(O)c2)oc2ccc3ccccc3c12` the IC50 (Albumin) was > 94.2 µM (inactive).
For `COc1ccc(NC(=O)CSc2nnc3ccc(-c4cccnc4)nn23)cc1OC`, the IC50 [7] was 35.9 µM (inactive), the IC50 [8] was 35.9 µM (inactive) and the IC50 (Steroidogenic factor 1) was 35.9 µM (inactive).
In the case of `COc1ccc(C(=O)NC(=S)NNC(=O)[C@H]2C[C@@H]2c2ccccc2)cc1OC`, the EC50 [9] was 1.36 µM (active), the IC50 [10] was 65.8 µM (inactive) and the EC50 (Streptococcus) was 3.19 µM (active). The CC50 (Vero [11]) was > 25 µM (active).
With `CC(C)[C@H](NC(=O)c1ccccc1)C(=O)OCc1nc2scc(-c3ccccc3)c2c(=O)[nH]1` the EC50 [12] was > 104 µM (inactive).
With `CN(C)CCNC(=O)c1cccc(-c2cnc3c(NC=O)cc(-c4cccc(F)c4)cn23)c1` the AC50 [13] was 5.99 µM (active) and the AC50 [14] was 22.4 µM (active).
